Series [1] concerns melanoma cells (UACC 903 and 1205 Lu) and normal human fibroblasts (FF2441). The series can be described thus: MTS cell viability assay, all the cell lines evaluated. It is filed as cell-based. As to conditions: read-out: IC50s in all the cell lines evaluated. From the text: (§1) Tumour Biol 2017; 39(3):1010428317694565; Rao P C, et al., Cytotoxicity of withasteroids: withametelin induces cell cycle arrest at G2/M phase and mitochondria-mediated apoptosis in non-small cell lung cancer A549 cells. Tumour Biol 2016; 37(9):12579-87; Dinavahi S S, et al., Combined inhibition of PDE4 and PI3Kdelta modulates the inflammatory component involved in the progression of chronic obstructive pulmonary disease. Drug Res (Stuttg) 2014; 64(4):214-9). Briefly, 3,000 cells per well were plated in a 96-well plate and incubated overnight at 37° C. in a 5% CO2 atmosphere. […] 20 μL of MTS reagent was then added into each well and formation of […] was measured by absorbance after 1 hour at 492 nm. IC50 values for each experimental group were measured in 3 independent experiments using GraphPad Prism version 7.04 (GraphPad Software, La Jolla, CA).
For orientation: Tetrazolium dyes change colour on reduction, which living cells bring about.

For series [2], the system named is total cellular ALDH activity, UACC 903 cell lysates. Put plainly: Total cellular ALDH activity in cell lysates, UACC 903. The settings on record: 1 uM, 15 minutes, UACC 903 and 1205 Lu cell lysates. It counts as cell-based, human. From the text: The ALDHs reduce ROS, lipid peroxidation and toxic aldehyde accumulation, the latter of which can lead to cell damage and apoptosis as shown in FIG. 6A. Thus, inhibition of total cellular ALDH activity can increase toxic aldehydes, oxidative damage and apoptosis.

Series [3] relates to UACC 903 and 1205 Lu cells. The series can be described thus: ROS assay (DCFDA), melanoma cells. It is filed as cell-based, human. As to conditions: 5 μM, 24 hours, vs DMSO.
The subject of series [4] is UACC 903 and 1205 Lu cells. Put plainly: Lipid peroxidation (TBARS), melanoma cells. It counts as cell-based, human. As to conditions: 5 μM, 24 hours, vs DMSO. An excerpt:
DMSO served as the vehicle control.

Another series concerns the target T1, ALDH3A1 (Homo sapiens, UniProt P30838).
T1 construct: purchased R & D Systems, Inc, Minneapolis, MN, USA
T1 sequence (P30838 1-453): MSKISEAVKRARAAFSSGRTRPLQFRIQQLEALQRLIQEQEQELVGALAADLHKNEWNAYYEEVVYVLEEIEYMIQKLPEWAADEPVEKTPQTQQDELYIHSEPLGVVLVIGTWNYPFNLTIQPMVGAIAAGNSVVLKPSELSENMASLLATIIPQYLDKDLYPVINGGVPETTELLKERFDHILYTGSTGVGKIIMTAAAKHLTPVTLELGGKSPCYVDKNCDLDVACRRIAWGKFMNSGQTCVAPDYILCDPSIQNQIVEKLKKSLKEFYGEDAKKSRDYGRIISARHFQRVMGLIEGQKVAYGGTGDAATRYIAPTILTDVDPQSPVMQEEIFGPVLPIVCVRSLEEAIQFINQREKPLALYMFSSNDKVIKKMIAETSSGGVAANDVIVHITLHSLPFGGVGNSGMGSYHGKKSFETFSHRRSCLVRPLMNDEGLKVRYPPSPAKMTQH
The series can be described thus: ALDH isoform-specific enzyme assay, ALDH3A1 (NADH absorbance). It is filed as biochemical.

Another series relates to UACC 903 cells. Put plainly: MTS cell viability assay, UACC 903. The settings on record: 100 μM, 72 hours. It counts as cell-based, human.
The target of a further series is T2, ALDH1A1 (Homo sapiens, UniProt P00352).
T2 construct: purchased R & D Systems, Inc, Minneapolis, MN, USA
T2 sequence (P00352 1-501): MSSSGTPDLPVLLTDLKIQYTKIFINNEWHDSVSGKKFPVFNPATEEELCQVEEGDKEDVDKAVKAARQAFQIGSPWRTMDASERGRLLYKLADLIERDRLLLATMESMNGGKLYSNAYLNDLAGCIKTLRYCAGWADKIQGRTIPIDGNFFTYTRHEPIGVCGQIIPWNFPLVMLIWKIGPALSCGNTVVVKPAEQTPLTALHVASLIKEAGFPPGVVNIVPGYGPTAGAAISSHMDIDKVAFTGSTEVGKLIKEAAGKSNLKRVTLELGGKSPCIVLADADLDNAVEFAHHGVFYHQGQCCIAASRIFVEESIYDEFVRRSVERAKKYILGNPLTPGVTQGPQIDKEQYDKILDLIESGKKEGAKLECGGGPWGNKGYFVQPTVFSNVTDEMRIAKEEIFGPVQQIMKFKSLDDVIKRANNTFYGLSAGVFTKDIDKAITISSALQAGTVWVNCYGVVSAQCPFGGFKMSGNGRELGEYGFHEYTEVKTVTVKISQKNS
Put plainly: ALDH isoform-specific enzyme assay, ALDH1A1 (NADH absorbance). It is filed as biochemical. The settings on record: read-out: IC50s ALDH1A1.

Another series concerns the target T3, ALDH2 (Homo sapiens, UniProt P05091).
T3 construct: purchased R & D Systems, Inc, Minneapolis, MN, USA
T3 sequence (P05091 18-517): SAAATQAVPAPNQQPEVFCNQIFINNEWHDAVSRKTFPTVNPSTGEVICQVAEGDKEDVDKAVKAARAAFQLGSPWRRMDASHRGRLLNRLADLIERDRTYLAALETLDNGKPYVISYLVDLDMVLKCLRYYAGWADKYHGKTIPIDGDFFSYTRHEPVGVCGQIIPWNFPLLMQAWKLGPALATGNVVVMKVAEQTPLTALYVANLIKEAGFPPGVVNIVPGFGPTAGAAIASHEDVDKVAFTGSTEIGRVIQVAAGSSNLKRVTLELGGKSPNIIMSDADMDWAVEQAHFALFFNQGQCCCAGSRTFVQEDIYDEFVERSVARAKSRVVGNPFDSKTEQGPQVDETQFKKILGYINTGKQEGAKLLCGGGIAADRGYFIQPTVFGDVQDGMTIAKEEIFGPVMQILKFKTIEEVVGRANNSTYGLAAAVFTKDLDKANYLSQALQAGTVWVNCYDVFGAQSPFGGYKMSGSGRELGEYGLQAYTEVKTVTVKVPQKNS
Put plainly: ALDH isoform-specific enzyme assay, ALDH2 (NADH absorbance). It is filed as biochemical. As to conditions: read-out: IC50s ALDH2.

For series [5], the system named is Colon cancer cells (HCT116 and HT29). Put plainly: MTS cell viability assay, colon cancer cells. It counts as cell-based. As to conditions: HCT116 and HT29, 72 hours; read-out: Average IC50s across both colon cancer cell lines.
Source text: as §1

Series [6] relates to multiple myeloma cell lines (NCIH929, U266, RPMI8226, MM.1R). Put plainly: MTS cell viability assay, multiple myeloma cells. It is filed as cell-based. As to conditions: 72 hours, read-out: Average IC50s across all multiple myeloma cell lines tested.
Source text: as §1

The test system of a further series is Swiss-Webster mice. Put plainly: Toxicity study, 14 days. As to conditions: 5 mg/kg/day i.p. for 14 days, vs DMSO. It counts as in vivo, mouse. The procedure:
To determine the toxicity of 3(h-l), compounds were injected i.p. into Swiss-Webster mice once daily for 14 days (Id.). Animals were monitored for changes in body weight, behavior and physical distress compared to DMSO control.

For series [7], the system named is colon cell lines (HCT116, HT29). The series can be described thus: ROS assay (DCFDA) with or without NAC, Study 2. It counts as cell-based.
Experimental: ROS activity was measured using DCFDA dye. […] Cells were incubated with 10 μM of DCFDA for 1 hour, and fluorescence was measured at 485 nm excitation and 510 nm emission. ROS levels in treated cells were compared to DMSO control.
In series [8] the test system is colon cancer cell line, HCT116. Put plainly: Cell survival MTS assay with addition of NAC. It counts as cell-based.
Experimental: (§2) Briefly, 3,000 cells per well were plated in a 96-well plate and incubated overnight at 37° C. in a 5% CO2 atmosphere. […] 20 μL of MTS reagent was then added into each well and formation of tetrazolium was measured by absorbance after 1 hour at 492 nm. IC50 values for each experimental group were measured in 3 independent experiments using GraphPad Prism version 7.04 (GraphPad Software, La Jolla, CA).
For series [9], the system named is HCT116 colon cancer cells. Put plainly: Apoptosis by Annexin-V/7-AAD, HCT116. It is filed as cell-based. The arrangement: dose or concentration left out as unconfirmed. As to conditions: vs DMSO control or 3a.
Series [10] has as its system colon cancer cell line HCT116. Put plainly: Cell cycle by propidium iodide staining, HCT116. As to conditions: reversed by addition of NAC. It counts as cell-based.
Series [11] relates to HCT116 colon cancer cell line. Put plainly: Lipid peroxidation and toxic aldehyde accumulation (TBARS), Study 2.

A word on the inhibition: it is the change of the read-out against control, counted positive when it falls.

Counter-ions that a name gives are not always drawn. Like-named read-outs stand apart in the source and are kept apart here. Where only a bound is given, the exact number is not on record here.

Experimental for ALDH1A1: (§3) ALDH enzyme assays were performed using a kit as described by the kit manufacturer (R & D Systems, Inc, Minneapolis, MN, USA). Isoform-specific aldehydes were converted to their respective carboxylic acids along with conversion of NAD+ to NADH (absorbance at 340 nm). […] Similarly, 0.5 μg/mL of ALDH2 was used in the reaction with 2 mM of acetaldehyde as the substrate and 0.2 μg/mL of ALDH3A1 was used in the reaction with 1 mM of 4-nitrobenzaldehyde (4-NBA) as the substrate following addition of ALDH inhibitors.
(§4) ALDH1A1, 2 and 3A1 enzyme assays were performed as described by the manufacturer (R & D systems). Isoform-specific aldehydes were converted to their respective carboxylic acids along with the conversion of NAD+ to NADH (absorbance at 340 nm).
Experimental for ALDH2: as §3, §4
Experimental for ALDH3A1: as §3, §4
Experimental for UACC 903 cells: Cell viability assays of UACC 903 cells transfected with siRNA, and melanoma cell lines (UACC 903, 1205 Lu, C8161.CI9, MelJuSo), FF2441 and NHEM cells treated with ALDH inhibitors were performed. For this, 5,000 cells per well were plated in a 96-well plate and incubated overnight at 37° C. in a 5% CO2 atmosphere. For the siRNA knockdown experiment, cells were incubated for another 72 hours. For the ALDH inhibitor experiments, cells were treated with agents at various concentrations and incubated for 72 hours. 20 μL of MTS reagent was then added into each well and formation of tetrazolium was measured by absorbance after 1 hour at 492 nm. IC50 values or % cells for each experimental group were measured in three independent experiments using GraphPad Prism version 7.04 (GraphPad Software, La Jolla, CA).
as §2

Turning to `O=C1C(=O)N(Cc2ccccc2)c2ccccc21` [Cpd 3], the IC50 in series [1] was above 100 µM.
In the case of `CCOC(=O)CSc1nc2c(sc3ccccc32)c(=O)n1CCCN1CCCC1` [CM037], the “effect on total cellular ALDH activity” value in [2] is “significantly reduced”. In [3], the ROS levels entry was “significantly increased ROS levels”. Moreover, the “lipid peroxidation and toxic aldehyde accumulation” value in [4] was “significantly increased lipid peroxidation and toxic aldehyde accumulation”.
Consider `N=C(N)[Se]Cc1ccc(CN2C(=O)C(=O)c3cc(Br)ccc32)cc1` [Compound 4b, 2-[4-(5-Bromo-2,3-dioxo-2,3-dihydroindol-1-ylmethyl)benzyl]isoselenourea hydrobromide], for which the inhibition at 0.5 µM at ALDH3A1 (read-out: % inhibition of ALDH3A1) was at least 60%.
Regarding `CCN(CC)c1ccc(C=O)cc1` [DEAB], the IC50 came to 15.1 µM on ALDH3A1 (as rounded in text, read-out: IC50 ALDH3A1) and 15.1 µM on ALDH3A1 (read-out: IC50s ALDH3A1). For the same compound, the “reduction of UACC 903 cell survival” value in the series on UACC 903 cells was determined as 30%. For the same compound, the “effect on total cellular ALDH activity” value in series [2] is “significantly reduced”. Besides, the ROS levels entry in series [3] is “significantly increased ROS levels”. Besides, the “lipid peroxidation and toxic aldehyde accumulation” value in series [4] is “significantly increased lipid peroxidation and toxic aldehyde accumulation”.
With `Cc1nc2ccccc2n1S(=O)(=O)c1ccc(F)cc1` [CB7], the IC50 on ALDH1A1 was determined as 139 µM; at ALDH2, 144 µM.
In the case of `O=C1Nc2ccccc2C1=O` [Isatin], in series [2], the “effect on total cellular ALDH activity” value is recorded as “ineffective”.
For `Br.N=C(N)SCc1ccc(CN2C(=O)C(=O)c3cc(C(F)(F)F)ccc32)cc1` [Compound 3h, 2-[4-(2,3-Dioxo-5-trifluoromethyl-2,3-dihydroindol-1-ylmethyl)benzyl]isothiourea hydrobromide], the IC50 worked out at 5.3 µM in series [5] and 1.9 µM in series [6]. Also, the weight loss result in the series on Swiss-Webster mice is on record as “no significant weight loss”. Moreover, the ROS levels entry in series [7] (5 μM, 24 hours, vs DMSO) is reported as “significantly increased ROS levels”. Moreover, the “ROS-inducing activity on addition of N-Acetyl Cysteine (NAC)” value in series [7] (with NAC) was “abrogated”. Also, the “increase of cell killing IC50 on addition of NAC” value in series [8] came out at 6 fold. In addition, in series [9], the “percentage of cells both Annexin-V and 7-AAD positive” value was “significantly higher”. In addition, the cell cycle effect entry in series [10] is “G2/M arrest”. Besides, the “lipid peroxidation and toxic aldehyde accumulation” value in [11] (5 μM, 24 hours, vs DMSO) is listed as “significantly increased”. Moreover, the “lipid peroxidation effect on addition of NAC” value in series [11] (with NAC) is given as “abrogated”.
As to `N=C(N)SCc1ccc(CN2C(=O)C(=O)c3cc(Cl)cc(Cl)c32)cc1` [Compound 3k, 2-[4-(5,7-Dichloro-2,3-dioxo-2,3-dihydroindol-1-ylmethyl)benzyl]isothiourea hydrobromide], the IC50 stood at 2.9 µM in series [5] and 1.6 µM in series [6].

The values are drawn from patent US12616678B2, “Methods to of aldehyde dehydrogenases for treatment of cancer” (THE PENN STATE RESEARCH FOUNDATION, priority 2020, dated 2026).
